Literature values as cited in US12070444B2, “Modulation of molecular markers using S-equol” (Board of Regents, The University of Texas System, priority 2020, dated 2024).
Where two headings read alike, the source gives them in different places.

Columns and labels:
[1] = system: tumor resistance to ICB immunotherapy; settings: recent report (Huang, 2020); cited from earlier work
[2] = system: Ki67 expression; settings: IMPACT trial; cited from earlier work
[3] = system: TNBC; settings: cited from earlier work

For Oc1ccc([C@@H]2Oc3ccc(O)cc3[C@@H]3CCC[C@@H]32)cc1 [LY500307], the “effect on tumor resistance to ICB immunotherapy” value [1] is listed as “overcoming tumor resistance to ICB immunotherapy”.

In the case of CC(C)(C#N)c1cc(Cn2cncn2)cc(C(C)(C)C#N)c1 [anastrazole], the “change in the geometric mean of Ki67 expression after two weeks” value [2] is given as −76%.

In the case of CC/C(=C(\c1ccccc1)c1ccc(OCCN(C)C)cc1)c1ccccc1 [tamoxifen], the “change in the geometric mean of Ki67 expression after two weeks” value [2] is given as −59.5%.

In the case of atezolizumab, the response rate ([3]; 21 evaluable, PD-L1 expressing TNBC tumors (Emens et al. 2015)) is listed as 19%.

In the case of avelumab, the response rate ([3]; 168 TNBC tumors unselected for PD-L1 expression (Dirix et al. 2015)) is given as 8.6%.

For pembrolizumab, the response rate ([3]; Phase 1 study, 27 women, heavily pretreated chemotherapy resistant metastatic TNBC expressing PD-L1 (Nanda et al. 2016)) is given as 18.4%.
